Among the data in patent publication US20250074906A1, “AZAINDOLE DERIVATIVE THAT INHIBITS H-PGDS” (SATO PHARMACEUTICAL CO., LTD., priority 2021, published 2025) are IC50 values, retold here.

T1 sequence (O60760 whole entry): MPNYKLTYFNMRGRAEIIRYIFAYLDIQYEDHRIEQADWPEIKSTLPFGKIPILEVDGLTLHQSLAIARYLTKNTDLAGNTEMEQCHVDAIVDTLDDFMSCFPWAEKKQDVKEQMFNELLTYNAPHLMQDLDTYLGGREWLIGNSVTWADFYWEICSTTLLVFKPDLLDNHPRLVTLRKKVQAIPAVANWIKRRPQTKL

This assay concerns the target T1, Recombinant human H-PGDS (Homo sapiens, UniProt O60760).
T1 construct: made in house; host or cells: E. coli
Description: H-PGDS inhibitory activity (prostaglandin D2 production measured by LC-MS/MS). The assay is classed as biochemical. Conditions: recombinant human H-PGDS 1.0 nM expressed in E. coli; prostaglandin H2 25 μM; 15 min preincubation and 1 min reaction on ice. The procedure:
The H-PGDS inhibitory activity of each Example compound was measured according to the method described in WO 2007/041634.
Recombinant human H-PGDS (final concentration: 1.0 nM) expressed in E. coli was mixed in an assay buffer containing 20 mM Tris-HCl (pH 8.0), 2 mM magnesium chloride, 2 mM reduced glutathione, and 0.5 mg/mL γ-globulin, and 150 μL of the mixture was dispensed into an 8-strip PCR tube (BM Equipment Co., Ltd). Test compounds (Example compounds) (16.5 μL) at various concentrations dissolved in DMSO were added and the mixture was preincubated for 15 minutes on ice.
Prostaglandin H2 (final concentration: 25 μM) (Cayman Chemical) was dispensed into another 8-strip PCR tube, and the solvent was dried and solidified using a vacuum concentrator (Thermo Fisher Scientific). To the dried and solidified prostaglandin H2 was added 50 μL of the assay buffer containing H-PGDS and each test compound after the preincubation, and the mixture was reacted on ice for 1 minute. 40 μL of this mixture was added to 40 μL of a stop solution (50 mM aqueous citric acid solution containing iron chloride at a final concentration of 4 mg/mL) to stop the reaction. Then, the reaction solution was deproteinized, added to a 96 square deep well plate (SHONANMARUHACHI STEC Co., Ltd.), and the prostaglandin D2 concentration in the reaction solution was measured by LC-MS/MS. ACQUITY (registered trademark) TQD (Waters) was used as a measuring instrument.
Prostaglandin D2 production activity (%) in the group with each test compound when a value obtained by subtracting the amount of production of prostaglandin D2 in the group without enzyme, which is non-specific production of prostaglandin D2, from the amount of production of prostaglandin D2 in the group without test compound (DMSO-addition group) in each 8-strip PCR tube is 100% was calculated. From the calculated activity value, the test compound concentration that inhibits prostaglandin D2 production by 50% (IC50) was determined.
As for `CC(C)(O)[C@H]1CC[C@H](NC(=O)c2ccc(-c3ncc(Cl)c4[nH]ccc34)cc2)CC1` [Example 14, 4-(7-chloro-1H-pyrrolo[3,2-c]pyridin-4-yl)-N-[trans-4-(2-hydroxypropan-2-yl)cyclohexyl]benzamide], the IC50 (commonly the concentration at which inhibition is half-maximal) turned out to be 1200 pM.
With `C[C@]1(O)CC[C@H](NC(=O)c2ccc(-c3nccc4[nH]ccc34)c(F)c2)CC1` [Example 5, 3-fluoro-N-(trans-4-hydroxy-4-methylcyclohexyl)-4-(1H-pyrrolo[3,2-c]pyridin-4-yl)benzamide], the 50% inhibitory concentration (IC50) was 1000 pM.
The figure for `O=C(NC12CCC(O)(CC1)CC2)c1ccc(-c2ncc(F)c3[nH]ncc23)cc1` [Example 47, 4-(7-fluoro-1H-pyrazolo[4,3-c]pyridin-4-yl)-N-(4-hydroxybicyclo[2.2.2]octan-1-yl)benzamide] is 14000 pM; for `O=C(NC1CCOCC1)c1ccc(-c2ncc(F)c3[nH]ccc23)cc1` [Example 24, 4-(7-fluoro-1H-pyrrolo[3,2-c]pyridin-4-yl)-N-(tetrahydropyran-4-yl)benzamide] it is 860 pM.
`O=C(NC12CCC(O)(CC1)C2)c1ccc(-c2ncc(Cl)c3[nH]ccc23)cc1` [Example 32, 4-(7-chloro-1H-pyrrolo[3,2-c]pyridin-4-yl)-N-(4-hydroxybicyclo[2.2.1]heptan-1-yl)benzamide]: the IC50 came to 910 pM.
With `NC(=O)[C@H]1CC[C@H](NC(=O)c2ccc(-c3ncc(F)c4[nH]ccc34)cc2)CC1` [Example 27, N-(trans-4-carbamoylcyclohexyl)-4-(7-fluoro-1H-pyrrolo[3,2-c]pyridin-4-yl)benzamide] the figure was 2300 pM; with `Cc1cnc(-c2ccc(C(=O)N[C@H]3CC[C@](C)(O)CC3)cc2)c2cc[nH]c12` [Example 2, N-(trans-4-hydroxy-4-methylcyclohexyl)-4-(7-methyl-1H-pyrrolo[3,2-c]pyridin-4-yl)benzamide], 1300 pM; with `O=C(N[C@H]1CC[C@@H](O)CC1)c1ccc(-c2ncc(Cl)c3[nH]ccc23)cc1` [Example 33, 4-(7-chloro-1H-pyrrolo[3,2-c]pyridin-4-yl)-N-(cis-4-hydroxycyclohexyl)benzamide], 770 pM.
The figure for `NC(=O)C12CCC(NC(=O)c3ccc(-c4nccc5[nH]ccc45)c(F)c3)(CC1)CC2` [Example 8, 4-[3-fluoro-4-(1H-pyrrolo[3,2-c]pyridin-4-yl)benzamide]bicyclo[2.2.2]octane-1-carboxamide] is 750 pM; for `O=C(N[C@H]1CC[C@H](O)CC1)c1ccc(-c2ncc(F)c3[nH]ccc23)c(F)c1` [Example 39, 3-fluoro-4-(7-fluoro-1H-pyrrolo[3,2-c]pyridin-4-yl)-N-(trans-4-hydroxycyclohexyl)benzamide] it is 650 pM.
In the case of `CC(C)(O)[C@H]1CC[C@H](NC(=O)c2ccc(-c3nccc4[nH]nnc34)cc2)CC1` [Example 45, 4-(1H-[1,2,3]triazolo[4,5-c]pyridin-4-yl)-N-[trans-4-(2-hydroxypropan-2-yl)cyclohexyl]benzamide], the IC50 came out at 24000 pM.
With `O=C(NC12CCC(O)(CC1)CC2)c1ccc(-c2ncc(F)c3[nH]ccc23)c(F)c1` [Example 36, 3-fluoro-4-(7-fluoro-1H-pyrrolo[3,2-c]pyridin-4-yl)-N-(4-hydroxybicyclo[2.2.2]octan-1-yl)benzamide], the IC50 turned out to be 710 pM.
The figure for `C[C@]1(O)CC[C@H](NC(=O)c2ccc(-c3ncc(F)c4[nH]ccc34)cc2)CC1` [Example 21, 4-(7-fluoro-1H-pyrrolo[3,2-c]pyridin-4-yl)-N-(trans-4-hydroxy-4-methylcyclohexyl)benzamide] is 1700 pM.
With `O=C(N[C@H]1CC[C@H](C2(O)CC2)CC1)c1ccc(-c2nccc3[nH]ccc23)c(F)c1` [Example 11, 3-fluoro-N-[trans-4-(1-hydroxycyclopropyl)cyclohexyl]-4-(1H-pyrrolo[3,2-c]pyridin-4-yl)benzamide], the half-inhibitory concentration (IC50) was 3900 pM.
With `O=C(NC1CCS(=O)(=O)CC1)c1ccc(-c2ncc(F)c3[nH]ccc23)cc1` [Example 25, N-(1,1-dioxotetrahydrothiopyran-4-yl)-4-(7-fluoro-1H-pyrrolo[3,2-c]pyridin-4-yl)benzamide] the figure was 700 pM; with `CC(C)(O)[C@H]1CC[C@H](NC(=O)c2ccc(-c3nccc4[nH]ncc34)cc2)CC1` [Example 43, N-[trans-4-(2-hydroxypropan-2-yl)cyclohexyl]-4-(1H-pyrazolo[4,3-c]pyridin-4-yl)benzamide], 2400 pM.
With `O=C(NC12CCC(O)(CC1)C2)c1ccc(-c2ncc(F)c3[nH]ccc23)c(F)c1` [Example 41, 3-fluoro-4-(7-fluoro-1H-pyrrolo[3,2-c]pyridin-4-yl)-N-(4-hydroxybicyclo[2.2.1]heptan-1-yl)benzamide] the figure was 890 pM.
The figure for `O=C(N[C@H]1CC[C@H](O)CC1)c1ccc(-c2ncc(F)c3[nH]ccc23)cc1` [Example 20, 4-(7-fluoro-1H-pyrrolo[3,2-c]pyridin-4-yl)-N-(trans-4-hydroxycyclohexyl)benzamide] is 940 pM.
